Measured values published in US10617735B2, “Methods and compositions for preserving retinal ganglion cells” (Massachusetts Eye and Ear Infirmary, priority 2010, dated 2020).
Where a SMILES comes first, the peptide text is derived from it. The star is where a group is joined. Cbz = O=C(OCc1ccccc1)*; CH2F = FC*

Key:
Type in all cases: in vivo, mouse
[1] = test system: retinal ganglion cell axons; assay: Optic nerve crush model: axon regeneration (βIII-tubulin staining of longitudinal optic nerve sections); settings: 14 days, intravitreal ZVAD 300 μM and/or Nec-1 4 mM
Experimental: Mice were subjected to optic nerve crush surgery. Specifically, animals were anesthetized with an intraperitoneal injection of ketamine (60-80 mg/kg: Phoenix Pharmaceutical, St. Joseph, Mo.) and xylazine (10-15 mg/kg: Bayer, Shawnee Mission, K A). Animals were positioned in a stereotaxic apparatus and a 1-1.5 cm incision was made in the skin above the right orbit. Under microscopic illumination, the lachrymal glands and extraocular muscles were resected to expose 3-4 mm of the optic nerve. The epineurium was slit open along the long axis, and the nerve was crushed 2 mm behind the eye with angled jeweler's forceps (Dumont #5) for 10 seconds, avoiding injury to the ophthalmic artery. Nerve injury was verified by the appearance of a clearing at the crush site, while the vascular integrity of the retina was evaluated by fundoscopic examination. Cases in which the vascular integrity of the retina was in question were excluded from the study. […]
Axon regeneration was assessed by obtaining longitudinal sections of the optic nerve and counting the number of axons at pre-specified distances from the injury site. […] Axons were counted manually in at least eight longitudinal sections per case at pre-specified distances from the injury site. The number of regenerating axons at various distances are determined as described previously (Leon et al., (2000) J NEUROSCI 20:4615-4626). […]

[2] = test system: retinal ganglion cells (RGCs); assay: IPL thickness and GCL with IPL thickness after ON injury (immunohistochemistry, SD-OCT); settings: RIP3−/− mice; one week after ON injury
Experimental: An anti-TNF-α neutralizing antibody (0.1 mg/ml) or a control antibody was injected into the vitreous of mice that underwent ON injury. One week following injection, the number of RGCs were measured. In addition, inner plexiform layer (IPL) thickness (a location of RGC axons) was also assessed. Specifically, eyes were enucleated and RGC loss was quantified from histological sections of mouse retina. Only transverse sections involving the optic disc were used for analysis and the fields corresponding to approximately 400 μm of both sides of retina extending from the ON head (2 points/section×3 sections per eye, n=6) were examined with an optical microscope (×40 objectives). IPL thickness was measured with OpenLab software (Open Lab, Florence, Italy) (2 points/section×3 sections per eye, n=6). The ratio of IPL thickness was calculated as a percentage of IPL thickness in the normal mouse eyes (n=6).
Inner plexiform layer (IPL) thickness and ganglion cell layer (GCL) with IPL thickness (location of RGC cell bodies and axons) were measured using immunohistochemistry and a Spectral Domain Optical Coherence Tomography (SD-OCT) system (Bioptigen Inc., Durham, N.C.). […] The thickness of GCL+IPL was assessed at 500 μm, 400 μm, 300 μm distance from the ON head (nasally and temporally) as well as at 200 μm, 400 μm above and below the ON head.

[3] = test system: LC3-II; assay: LC3 protein level after ON injury (western blot); settings: one day after ON injury
Experimental: For Western blot analysis, whole retinas were harvested and lysed for 30 min on ice in lysis buffer (50 mM Tris-HCl [pH 8], with 120 mM NaCl and 1% Nonidet P-40), supplemented with a mixture of proteinase inhibitors (Complete Mini; Roche Diagnostics, Basel, Switzerland). Thirty micrograms of protein per sample were separated in a 4-20% gradient sodium dodecyl sulfate-polyacrylamide gel (SDS-PAGE) (Invitrogen Corporation, Carlsbad, Calif., USA) electrophoresis and the proteins were electroblotted onto PVDF membranes. After 20 min incubation in blocking solution (Starting Block™ T20, Thermo Scientific, Waltham, Mass.), membranes were incubated with primary antibodies overnight at 4° C. Peroxidase-labeled secondary antibodies (Amersham Pharmacia Biotech, Piscataway, N.J., USA) were used and proteins were visualized with enhanced chemiluminescence technique (Amersham Pharmacia Biotech). Full list of primary antibodies and working concentrations are shown below in Table 2.
Protein levels of LC3, an autophagy marker, were also assessed by western blot analysis.

[4] = test system: ROS; assay: Protein carbonyl contents in retina after ON injury (ELISA); settings: one day after ON injury; compared with vehicle group
Experimental: It has been reported that RIP kinases control ROS generation during programmed necrosis (Cho et. al., (2009) CELL 137:1112-1123, Zhang et al., (2009) SCIENCE 325:332-336)). To investigate whether ROS play a roll in oxidative retinal damage after ON injury, protein level of carbonyl contents was analyzed using ELISA using the OxiSelect™ Protein Carbonyl ELISA Kit (Cell Biolabs, San Diego, Calif.).
To investigate the role of autophagy in RGC death after ON injury, we examined the effect of 3-methyladenine (3-MA) on RGCs death after ON injury. 3-MA inhibits autophagosome formation (Seglen and Gordon, (1982) PROC NATL ACAD SCI USA 79:1889-1892)). One day after ON injury, TUNEL assay was performed. […] In addition, the number of Brn3b positive cells and IPL thickness were also analyzed. […] To investigate whether ROS play a role in oxidative retinal damage after ON injury, protein level of carbonyl contents was analyzed using an ELISA kit (Cell Biolabs, San Diego, Calif.) according to the manufacturer's instructions. One day after ON injury, carbonyl contents decreased in the 3-MA treated group compared with untreated control (FIG. 10F).

COC(=O)CC(NC(=O)C(C)NC(=O)C(NC(=O)OCc1ccccc1)C(C)C)C(=O)CF (stereo not drawn) [Z-VAD, Benzyloxycarbonyl-Val-Ala-Asp(OMe)-fluoromethylketone] (Cbz-Val-Ala-Asp(OMe)-CH2F; configuration not given here)
axon regeneration (βIII-tubulin axon staining beyond injury site) [1]: minimal effects on axon regeneration
IPL thickness [2]: preservation of IPL thickness
protein level of LC3-II [3]: increased more than vehicle
carbonyl contents (protein level, ELISA) [4]: dramatically increased
